The record followed here is PubChem BioAssay AID743390 (Vanderbilt Specialized Chemistry Center, 2014).

The target in the test is Phospholipase D1 (Homo sapiens) (UniProt Q13393). Description: purified PLD1 inhibitor potency, IC50, confirmation, biochemical, concentration response (AID 743390). The following applies: purified human PLD1 enzyme activity assay.
Chain of Phospholipase D1 (Homo sapiens) (Q13393 whole entry, looked up): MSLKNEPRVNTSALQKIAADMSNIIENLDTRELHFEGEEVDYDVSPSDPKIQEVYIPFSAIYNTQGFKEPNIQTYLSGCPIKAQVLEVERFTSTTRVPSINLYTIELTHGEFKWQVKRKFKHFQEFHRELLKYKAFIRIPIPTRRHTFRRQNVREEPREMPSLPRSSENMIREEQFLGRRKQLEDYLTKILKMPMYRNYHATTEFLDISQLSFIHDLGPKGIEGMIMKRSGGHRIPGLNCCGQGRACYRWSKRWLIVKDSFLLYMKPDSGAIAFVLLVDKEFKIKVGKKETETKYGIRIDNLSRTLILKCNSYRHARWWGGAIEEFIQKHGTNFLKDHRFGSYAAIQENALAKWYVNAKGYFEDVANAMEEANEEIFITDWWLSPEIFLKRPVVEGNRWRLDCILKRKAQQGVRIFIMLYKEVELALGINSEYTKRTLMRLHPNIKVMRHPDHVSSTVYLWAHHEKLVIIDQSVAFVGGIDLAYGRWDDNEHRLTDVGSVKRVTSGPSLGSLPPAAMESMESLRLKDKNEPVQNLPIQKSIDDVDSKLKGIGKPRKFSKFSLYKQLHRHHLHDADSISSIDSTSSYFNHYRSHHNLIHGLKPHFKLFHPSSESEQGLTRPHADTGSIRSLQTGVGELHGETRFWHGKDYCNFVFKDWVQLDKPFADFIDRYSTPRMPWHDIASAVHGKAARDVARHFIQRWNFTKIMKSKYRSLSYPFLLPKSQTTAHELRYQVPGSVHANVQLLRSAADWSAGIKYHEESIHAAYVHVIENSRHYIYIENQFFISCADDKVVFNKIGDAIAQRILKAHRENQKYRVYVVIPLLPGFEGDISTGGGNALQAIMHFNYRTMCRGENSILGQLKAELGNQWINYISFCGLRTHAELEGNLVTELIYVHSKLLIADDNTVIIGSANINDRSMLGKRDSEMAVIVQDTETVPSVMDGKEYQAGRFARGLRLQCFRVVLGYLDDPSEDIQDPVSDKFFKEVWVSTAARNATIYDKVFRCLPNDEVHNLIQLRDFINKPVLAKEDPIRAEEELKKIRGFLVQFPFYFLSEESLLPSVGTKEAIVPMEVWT

What is called IC50 is the midpoint of a concentration-inhibition curve. Consider `O=C(NCCN1CCC2(CC1)C(=O)NCN2Cc1cccnc1)c1ccc2ccccc2c1`, for which the concentration for half-maximal inhibition (IC50) is 20 µM.

`O=C(NCCN1CCC2(CC1)C(=O)NCN2Cc1cccnc1)c1cc2ccccc2o1`: the IC50 was 20 µM.
